Values after ≈ are worked out from the molar mass of the structure shown. Values joined by “and” are separate entries in the source; they are usually repeats but may differ in a detail not shown here. Equal values may be shown once.
Columns and labels:
[1] = test system: human monocyte-derived macrophages; assay: Cytotoxicity, LDH release; type: cell-based; conditions: 5 µM; 3 days
Method: (§1) The blood was collected from healthy donors and the peripheral blood mononuclear cells were isolated by Ficoll-Paque Plus (GE Healthcare, Freiburg, Germany) density gradient centrifugation as previously described ([Machado et al., 2016]). […] Fresh medium was added at day 4 post isolation. The effect of the compounds on human monocyte-derived macrophages was evaluated using the AlamarBlue method (Molecular Probes, Life Technologies) ([O’Brien et al., 2000]), and by measuring the release of the lactate dehydrogenase (LDH) into the culture supernatants using the Pierce LDH Cytotoxicity Assay (ThermoFisher Scientific, Waltham, MA, USA) ([Chan, Moriwaki & Rosa, 2013]) according to the manufacturer’s instructions. Briefly, 5 × 10^4 cells were seeded in 96-well microplates treated with the compounds, and incubated at 37 °C with 5% CO2. After 72 h of treatment, the cell viability was assessed. For the AlamarBlue method, the dye was added to each well to a final concentration of 10% and incubated overnight at 37 °C and 5% CO2. The fluorescence was measured with a 540/35 excitation filter and a 590/20 emission filter in a Synergy HT multi-mode microplate reader. The release of LDH from damaged cells into culture supernatants, as an indicator of cytotoxicity, was measured in serum-free medium. Here the amount of enzyme activity correlates to the number of damaged cells. The specific lysis was calculated as follows: (treated cells—spontaneous LDH release)/ (maximum LDH release—spontaneous LDH release) ×100.

[2] = test system: panel of selected bacterial species; assay: Spectrum of activity, average MIC per bacterial group; type: cell-based
[3] = test system: E. coli AG100A; assay: EtBr efflux by real-time fluorometry; conditions: 20 µM, without glucose
Method: Control tubes with only cells and cells with and without 0.4% glucose were included. The fluorescence was measured in a Rotor-Gene 3000 and the data was acquired every 30 s for 30 min at 37 °C. The efflux activity was quantified by comparing the fluorescence data obtained under conditions that promote efflux (presence of glucose and absence of efflux inhibitor) with the data from the control in which the bacteria are under conditions of no efflux (presence of an inhibitor and no energy source).

[4] = test system: Mycobacterium smegmatis mc2155 ATCC700084T; assay: MIC, antibacterial specificity; type: cell-based
[5] = test system: Enterobacter aerogenes ATCC13048; assay: MIC, antibacterial specificity; type: cell-based
[6] = test system: human monocyte-derived macrophages; assay: Cytotoxicity, AlamarBlue method; type: cell-based; conditions: for AlamarBlue fluorescence 530/25,590/35 (raw well reading): 72 h
Method: as §1

[7] = three days of exposure, AlamarBlue

CCCOc1ccc(-c2cc(OCCN3CCNCC3)c3ccccc3n2)cc1 [PQQ4R, 4-(2-(piperazin-1-yl)ethoxy)-2-(4-propoxyphenyl) quinolone]
increase in LDH release [1]: 52.45%
average MIC ([2]; Gram-negative bacteria): ≥ 128 µg/mL
average MIC ([2]; Gram-positive bacteria): 50 µg/mL
average MIC ([2]; acid-fast bacteria): 32 µg/mL
EtBr fluorescence (Channel Cycling A.530/585hp) ([3]; cycle 1): 5.807
EtBr fluorescence (Channel Cycling A.530/585hp) ([3]; cycle 2): 5.662
EtBr fluorescence (Channel Cycling A.530/585hp) ([3]; cycle 3): 5.478
EtBr fluorescence (Channel Cycling A.530/585hp) ([3]; cycle 4): 5.356
EtBr fluorescence (Channel Cycling A.530/585hp) ([3]; cycle 5): 5.183
EtBr fluorescence (Channel Cycling A.530/585hp) ([3]; cycle 6): 5.1485
EtBr fluorescence (Channel Cycling A.530/585hp) ([3]; cycle 7): 5.025
EtBr fluorescence (Channel Cycling A.530/585hp) ([3]; cycle 8): 4.924
EtBr fluorescence (Channel Cycling A.530/585hp) ([3]; cycle 9): 4.937
EtBr fluorescence (Channel Cycling A.530/585hp) ([3]; cycle 10): 4.811
EtBr fluorescence (Channel Cycling A.530/585hp) ([3]; cycle 11): 4.773
EtBr fluorescence (Channel Cycling A.530/585hp) ([3]; cycle 12): 4.602
EtBr fluorescence (Channel Cycling A.530/585hp) ([3]; cycle 13): 4.634
EtBr fluorescence (Channel Cycling A.530/585hp) ([3]; cycle 14): 4.745
EtBr fluorescence (Channel Cycling A.530/585hp) ([3]; cycle 15): 4.684
EtBr fluorescence (Channel Cycling A.530/585hp) ([3]; cycle 16): 4.629
EtBr fluorescence (Channel Cycling A.530/585hp) ([3]; cycle 17): 4.631
EtBr fluorescence (Channel Cycling A.530/585hp) ([3]; cycle 18): 4.599
EtBr fluorescence (Channel Cycling A.530/585hp) ([3]; cycle 19): 4.579
EtBr fluorescence (Channel Cycling A.530/585hp) ([3]; cycle 20): 4.522
EtBr fluorescence (Channel Cycling A.530/585hp) ([3]; cycle 21): 4.504
EtBr fluorescence (Channel Cycling A.530/585hp) ([3]; cycle 22): 4.567
EtBr fluorescence (Channel Cycling A.530/585hp) ([3]; cycle 23): 4.591
EtBr fluorescence (Channel Cycling A.530/585hp) ([3]; cycle 24): 4.544
EtBr fluorescence (Channel Cycling A.530/585hp) ([3]; cycle 25): 4.652
EtBr fluorescence (Channel Cycling A.530/585hp) ([3]; cycle 26): 4.627
EtBr fluorescence (Channel Cycling A.530/585hp) ([3]; cycle 27): 4.498
EtBr fluorescence (Channel Cycling A.530/585hp) ([3]; cycle 28): 4.577
EtBr fluorescence (Channel Cycling A.530/585hp) ([3]; cycle 29): 4.648
EtBr fluorescence (Channel Cycling A.530/585hp) ([3]; cycle 30): 4.639
EtBr fluorescence (Channel Cycling A.530/585hp) ([3]; cycle 31): 4.704
EtBr fluorescence (Channel Cycling A.530/585hp) ([3]; cycle 32): 4.705
EtBr fluorescence (Channel Cycling A.530/585hp) ([3]; cycle 33): 4.739
EtBr fluorescence (Channel Cycling A.530/585hp) ([3]; cycle 34): 4.713
EtBr fluorescence (Channel Cycling A.530/585hp) ([3]; cycle 35): 4.766
EtBr fluorescence (Channel Cycling A.530/585hp) ([3]; cycle 36): 4.793
EtBr fluorescence (Channel Cycling A.530/585hp) ([3]; cycle 37): 4.818
EtBr fluorescence (Channel Cycling A.530/585hp) ([3]; cycle 38): 4.849
EtBr fluorescence (Channel Cycling A.530/585hp) ([3]; cycle 39): 4.826
EtBr fluorescence (Channel Cycling A.530/585hp) ([3]; cycle 40): 4.8647
EtBr fluorescence (Channel Cycling A.530/585hp) ([3]; cycle 41): 4.7891
EtBr fluorescence (Channel Cycling A.530/585hp) ([3]; cycle 42): 4.94
EtBr fluorescence (Channel Cycling A.530/585hp) ([3]; cycle 43): 5.003
EtBr fluorescence (Channel Cycling A.530/585hp) ([3]; cycle 44): 5
EtBr fluorescence (Channel Cycling A.530/585hp) ([3]; cycle 45): 5.002
EtBr fluorescence (Channel Cycling A.530/585hp) ([3]; cycle 46): 5.099
EtBr fluorescence (Channel Cycling A.530/585hp) ([3]; cycle 47): 5.05
EtBr fluorescence (Channel Cycling A.530/585hp) ([3]; cycle 48): 5.085
EtBr fluorescence (Channel Cycling A.530/585hp) ([3]; cycle 49): 5.044
EtBr fluorescence (Channel Cycling A.530/585hp) ([3]; cycle 50): 5.1253
EtBr fluorescence (Channel Cycling A.530/585hp) ([3]; cycle 51): 5.103
EtBr fluorescence (Channel Cycling A.530/585hp) ([3]; cycle 52): 5.071
EtBr fluorescence (Channel Cycling A.530/585hp) ([3]; cycle 53): 5.2927
EtBr fluorescence (Channel Cycling A.530/585hp) ([3]; cycle 54): 5.227
EtBr fluorescence (Channel Cycling A.530/585hp) ([3]; cycle 55): 5.134
EtBr fluorescence (Channel Cycling A.530/585hp) ([3]; cycle 56): 5.328
EtBr fluorescence (Channel Cycling A.530/585hp) ([3]; cycle 57): 5.315
EtBr fluorescence (Channel Cycling A.530/585hp) ([3]; cycle 58): 5.365
EtBr fluorescence (Channel Cycling A.530/585hp) ([3]; cycle 59): 5.339
EtBr fluorescence (Channel Cycling A.530/585hp) ([3]; cycle 60): 5.32
EtBr fluorescence (Channel Cycling A.530/585hp) ([3]; cycle 61): 5.417
MIC [4]: 32 µg/mL (≈ 81.7 µM)
MIC [5]: >256 µg/mL
AlamarBlue fluorescence 530/25,590/35 (raw well reading) ([6]; 0.625 uM): 4943 and 4771 and 4650
AlamarBlue fluorescence 530/25,590/35 (raw well reading) ([6]; 1.25 uM): 4755 and 4559 and 4604
AlamarBlue fluorescence 530/25,590/35 (raw well reading) ([6]; 5 uM): 468 and 451 and 495
AlamarBlue fluorescence 530/25,590/35 (raw well reading) ([6]; 10 uM): 253 and 248
AlamarBlue fluorescence 530/25,590/35 (raw well reading) ([6]; 20 uM): 256 and 246 and 248
AlamarBlue fluorescence 530/25,590/35 (raw well reading) ([6]; 40 uM): 254 and 251 and 248
AlamarBlue fluorescence 530/25,590/35 (raw well reading) ([6]; 80 uM): 254 and 250 and 251
AlamarBlue fluorescence 530/25,590/35 (raw well reading) ([6]; 160 uM): 259 and 263 and 255
CC10 [6, 7]: 9.21 µM
CC90 [6, 7]: 12.7 µM
